According to patent EP4215522A1, “DERIVATIVES OF 4-CHROMONE AS INHIBITORS OF THE RDRP POLYMERASE OF SARS-COV-2 VIRUS AND METHOD FOR THE PREPARATION THEREOF” (priority 2022, dated 2023):
Like-named read-outs stand apart in the source and are kept apart here.

What was measured:
[1] = target: RNA-dependent RNA polymerase (SARS-CoV-2) (Severe acute respiratory syndrome coronavirus 2, UniProt P0DTD1); experiment: in vitro enzymatic assay of RdRp activity (AlphaScreen detection); format: biochemical
[2] = Microsomal stability in mice; format: in vitro ADME; settings: mouse microsomes
Protocol: (§1) The solubility and stability of some compounds of the invention and known compounds were evaluated.

Plasma stability in mice = format: in vitro ADME; settings: mouse plasma
Protocol: as §1

Kinetic solubility = format: physicochemical
Protocol: as §1

[3] = RdRp reaction 37°C, 60 minutes, duplicate, 30 minutes preincubation, 1% DMSO
[4] = compound at 25 µM, read-out: % inhib. (25 µM)
[5] = compound at 100 µM, read-out: % inhib. (100 µM)

Row | SMILES | inhibition at 25 µM ([1]; read-out: % inhibition 25 µM) [%] | inhibition at 100 µM ([1]; read-out: % inhibition 100 µM) [%] | IC50 [1, 3] [µM] | inhibition at 25 µM [1, 4] [%] | inhibition at 100 µM [1, 5] [%] | IC50 (µM) [1, 3] | Microsomal stability in mice t1/2 [2] [h] | Plasma stability in mice t1/2 (Plasma stability in mice) [h] | Kinetic solubility Sk (Kinetic solubility) [µM]
1 | COc1cccc2oc(-c3ccc(O)cc3C)cc(=O)c12 [reference compound] | 3 | 34 |  |  |  |  |  |  | 
2 | O=c1cc(-c2ccc3c(c2)OC(F)(F)O3)oc2cc(O)cc(O)c12 [reference compound] | 0 | 51 |  |  |  |  |  |  | 
3 | O=C(NCCNC(=O)c1cc(=O)c2c(O)cccc2o1)c1ccc(O)c(O)c1 [(28), N-(2-(3,4-dihydroxybenzamide)ethyl)-5-hydroxy-4-oxo-4H-chromen-2-carboxamide] |  |  | 15.9 ± 1.1 | 79 | 100 |  |  |  | 
4 | O=c1cc(C(CCCC(F)(F)F)c2ccc(O)c(O)c2)oc2cccc(O)c12 (stereo not shown) [(13d), 2-(1-(3,4-dihydroxyphenyl)-5,5,5-trifluoropentyl)-5-hydroxy-4H-chromen-4-one] |  |  |  | 8 | 10 | NO inhibition |  |  | 
5 | O=c1c(OCCO)c(-c2ccc(O)c(O)c2)oc2cc(O)cc(O)c12 [(9b), 2-(3,4-dihydroxyphenyl)-5,7-dihydroxy-3-(2-hydroxyethoxy)-4H-chromen-4-one] |  |  | 6.1 ± 1 | 83 | 100 |  | >1 | >2 | 167
6 | O=c1cc(-c2ccc(O)c(O)c2)oc2cc(F)cc(O)c12 [reference compound] | 0 | 25 |  |  |  |  |  |  | 
7 | Cc1c(-c2ccc(O)c(O)c2)oc2cc(O)cc(O)c2c1=O [(5a), 2-(3,4-dihydroxyphenyl)-5,7-dihydroxy-3-methyl-4H-chromen-4-one] |  |  | 4.3 ± 1.1 | 94 | 99 |  |  |  | 32
8 | O=C(Oc1ccc(O)c(O)c1)c1cc(=O)c2c(O)cccc2o1 [(24b), 3,4-dihydroxyphenyl-5-hydroxy-4-oxo-4H-chromen-2-carboxylate] |  |  | 2 ± 1 | 95 | 94 |  |  |  | <1
9 | CCCc1c(-c2ccc(O)c(O)c2)oc2cc(O)cc(O)c2c1=O [(5b), 2-(3,4-dihydroxyphenyl)-5,7-dihydroxy-3-propyl-4H-chromen-4-one] |  |  | 8.8 ± 0.7 | 72 | 98 |  |  |  | 13
10 | CCCCOc1c(-c2ccc(O)c(O)c2)oc2cc(O)cc(O)c2c1=O [(9a), 3-butoxy-2-(3,4-dihydroxyphenyl)-5,7-dihydroxy-4H-chromen-4-one] |  |  | 5.3 ± 1 | 52 | 98 |  | >1 | >2 | 156
11 | O=C(OCCc1ccc(O)c(O)c1)c1cc(=O)c2c(O)cccc2o1 [(24c), 3,4-dihydroxyphenethyl-5-hydroxy-4-oxo-4H-chromen-2-carboxylate] |  |  | 44.1 ± 1.1 | 36 | 72 |  |  |  | 
12 | CCCCC(c1ccc(O)c(O)c1)c1cc(=O)c2c(O)cccc2o1 (stereo not shown) [(13c), 2-(1-(3,4-dihydroxyphenyl)pentyl)-5-hydroxy-4H-chromen-4-one] |  |  |  | 16 | 37 |  |  |  | 
13 | O=C(Nc1ccc(O)c(O)c1)c1cc(=O)c2c(O)cccc2o1 [(24a), N-(3,4-dihydroxyphenyl)-5-hydroxy-4-oxo-4H-chromen-2-carboxamide] |  |  | 7.1 ± 0.8 | 80 | 100 |  | 1 | 1.38 ± 0.217 | 65
14 | CC(c1ccc(O)c(O)c1)c1cc(=O)c2c(O)cccc2o1 (stereo not shown) [(13b), 2-(1-(3,4-dihydroxyphenyl)ethyl)-5-hydroxy-4H-chromen-4-one] |  |  | 4.1 ± 1.4 | 65 | 100 |  | >1 | >2 | 165
15 | O=c1c(OCCCO)c(-c2ccc(O)c(O)c2)oc2cc(O)cc(O)c12 [(9c), 2-(3,4-dihydroxyphenyl)-5,7-dihydroxy-3-(3-hydroxypropoxy)-4H-chromen-4-one] |  |  | 5.6 ± 0.1 | 71 | 95 |  | 1 | 1.5 | 231
16 | O=c1cc(/C=C/c2ccc(O)c(O)c2)oc2cccc(O)c12 [(18), (E)-2-(3,4-dihydroxystyryl)-5-hydroxy-4H-chromen-4-one] |  |  | 7 ± 1.2 | 54 | 94 |  |  |  | <1
17 | O=c1cc(-c2ccc(O)c(O)c2)oc2cc(O)cc(O)c12 [luteolin, reference compound] |  |  |  |  |  |  | >1 | >2 | 21
18 | O=c1cc(Cc2ccc(O)c(O)c2)oc2cccc(O)c12 [(13a), 2-(3,4-dihydroxybenzyl)-5-hydroxy-4H-chromen-4-one] |  |  | 8.5 ± 0.7 | 78 | 99 |  | >1 | >2 | 63
19 | O=c1c(O)c(-c2ccc(O)c(O)c2)oc2cc(O)cc(O)c12 [quercetin, reference compound] |  |  |  |  |  |  | >1 | 0.12 | 16
20 | O=C(NCCNC(=S)Nc1ccc(O)c(O)c1)c1cc(=O)c2c(O)cccc2o1 [(31), N-(2-(3-(3,4-dihydroxyphenyl)thiourea)ethyl)-5-hydroxy-4-oxo-4H-chromen-2-carboxamide] |  |  | 3.4 ± 1.2 | 86 | 94 |  |  |  | <1
21 | O=c1cc(CCc2ccc(O)c(O)c2)oc2cccc(O)c12 [(20), 2-(3,4-dihydroxyphenethyl)-5-hydroxy-4H-chromen-4-one] |  |  | 5.8 ± 0.7 | 80 | 97 |  | >1 | >2 | 67
